Assay: Solubility in C1-C3 alcohols
Type: physicochemical
Conditions: methanol, ethanol, propan-1-ol, propan-2-ol; room temperature
Method: Ondansetron Form B may be prepared by crystallizing ondansetron from a solution in a C1-C3 alcohol, in particular, methanol, ethanol, propan-1-ol, propan-2-ol and mixtures thereof. Ondansetron is dissolved in the C1-C3 alcohol, preferably in an amount sufficient to produce from about a 50 mM to about a 300 mM solution, more preferably from about an 85 mM to about a 150 mM solution. […] Consequently, it may be necessary to heat the mixture in order to fully dissolve it. Preferably, the mixture is refluxed until the mixture becomes a clear solution. The solution is preferably free of solid ondansetron that could potentially seed the mixture causing precipitation of ondansetron in a crystalline form other than Form B or co-crystallization of Form B with another form. Preferably, the Form B obtained by crystallization from the alcohol solution contains less than or equal to about 5% other crystalline forms of ondansetron, more preferably Form B contains less than or equal to about 1% other crystalline forms of ondansetron.

Cc1nccn1CC1CCc2c(c3ccccc3n2C)C1=O (racemic) [Ondansetron, (±) 1,2,3,9-Tetrahydro-9-methyl-3-[2-methyl-1H-imidazol-1-yl)methyl]-4H-carbazol-4-one]
solubility in C1-C3 alcohols: limited solubility

— patent US20050131045A1, “Novel crystal forms of ondansetron, processes for their preparation, pharmaceutical, compositions containing the novel forms and methods for treating nausea using them” (priority 2002, published 2005)
